Experimental data taken from publication PMC12615753, “Glutathione as a taste modulator: molecular mechanisms of interaction with umami and sweet taste receptors” (Food Chemistry: Molecular Sciences, 2025).

Experiments:
hTAS1R1 = target: T1, hTAS1R1 (Homo sapiens, UniProt Q7RTX1); assay: Calcium assay, subunit expressed alone; type: cell-based
T1 construct: UniProtKB number Q7RTX1–1); expressed in transfected cells; host or cells: HEK293 cells
T1 sequence (Q7RTX1 21-841): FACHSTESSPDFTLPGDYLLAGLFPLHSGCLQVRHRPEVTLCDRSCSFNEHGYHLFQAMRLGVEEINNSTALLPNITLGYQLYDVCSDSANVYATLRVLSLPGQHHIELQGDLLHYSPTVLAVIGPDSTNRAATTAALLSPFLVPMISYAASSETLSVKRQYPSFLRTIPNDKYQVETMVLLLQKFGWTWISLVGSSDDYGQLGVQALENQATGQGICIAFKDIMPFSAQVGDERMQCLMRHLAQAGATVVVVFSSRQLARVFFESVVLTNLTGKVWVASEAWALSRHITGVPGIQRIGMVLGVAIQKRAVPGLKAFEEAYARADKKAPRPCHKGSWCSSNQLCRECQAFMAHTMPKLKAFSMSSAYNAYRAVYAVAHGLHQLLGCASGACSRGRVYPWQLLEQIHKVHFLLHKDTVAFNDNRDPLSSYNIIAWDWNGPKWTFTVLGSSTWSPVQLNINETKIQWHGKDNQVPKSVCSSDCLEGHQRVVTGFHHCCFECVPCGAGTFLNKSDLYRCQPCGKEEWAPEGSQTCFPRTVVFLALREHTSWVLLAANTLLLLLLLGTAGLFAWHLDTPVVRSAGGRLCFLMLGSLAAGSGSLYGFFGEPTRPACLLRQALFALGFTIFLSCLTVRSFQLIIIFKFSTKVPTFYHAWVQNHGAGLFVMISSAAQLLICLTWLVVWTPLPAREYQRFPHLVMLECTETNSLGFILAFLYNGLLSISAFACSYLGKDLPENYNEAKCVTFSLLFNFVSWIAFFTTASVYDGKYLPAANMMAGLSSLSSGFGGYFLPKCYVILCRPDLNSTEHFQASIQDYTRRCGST
Description: HEK293T/17 cells (ATCC CRL-11268) were seeded into clear bottom black 96-well plates coated with poly-D-lysine at a density of 32500 cells/well in 100 μL of DMEM containing 4.5 g/L glucose and supplemented with penicillin/streptomycin, 2 mM GlutaMAX and 10 % dialyzed fetal bovine serum. The plates were incubated for 24 h at 37 °C and 7.3 % CO2 in a humidified atmosphere. After incubation, using Fugene® 4 K (0.46 μL/well, Promega, Illkirch, France), the cells were transiently transfected with pcDNA3-hTAS1R1-WT (60 ng/well) or TAS1R1 mutants, pcDNA4-rTAS1R3 (60 ng/well), pcDNA3-Gα15i2 (10 ng/well), and pGP-CMV-GCaMP6s (Addgene #40753; 10 ng/well) as a genetically encoded calcium indicator. Twenty-four hours after transfection, the HEK293T/17 cells were rinsed with 100 μL of C1 buffer (130 mM NaCl, 5 mM KCl, 10 mM HEPES, 2 mM CaCl2, and 5 mM sodium pyruvate, pH 7.4). For each molecule tested, a semi-logarithmic concentration range was created consisting of seven increasing concentrations and a negative control (zero dose) made of buffer C1. […] After 20 s of basal fluorescence calcium measurement, the cells were stimulated via automatic injection of a range of compounds in eight wells, and the signal emission was recorded for an additional 70 s, via a FlexStation 3® fluorometric microplate reader (Molecular Devices, San Jose, CA, USA). […] The emitted fluorescence was measured at a wavelength of 510 nm after excitation at 488 nm. […] For each well, the decrease in the raw fluorescence as the relative fluorescence changed was calculated as ΔF/F0. Replicates were averaged for the wells subjected to the same stimuli, the background signal was subtracted, and the fluorescence changes in mock-transfected cells were subtracted. The half-maximal effective concentration (EC50) and maximal signal amplitude (max ∆F/F0) were calculated via non-linear regression of the sigmoidal function four-parameter logistic equation [f(x) = min + (max − min)/(1 + (x/EC50)^nH)] via SigmaPlot 15.0 software (Grafiti LLC, Palo Alto, CA, USA). […]

hTAS1R1/rTAS1R3 = target: T2, hTAS1R1/rTAS1R3 (UniProt Q7RTX1+Q923K1); assay: Calcium assay (GCaMP6s, Gα15i2) in transiently transfected HEK293T/17 cells; type: cell-based, human, rat
T2 construct: UniProtKB number Q7RTX1–1); The cDNA coding region of rTAS1R3 was synthesized with optimized-codon usage for human expression; expressed in transfected cells; host or cells: HEK293T/17 (ATCC CRL-11268)
T2 sequence (Q7RTX1 21-841): T1 sequence (Q7RTX1 21-841)
T2 sequence (Q923K1 21-858): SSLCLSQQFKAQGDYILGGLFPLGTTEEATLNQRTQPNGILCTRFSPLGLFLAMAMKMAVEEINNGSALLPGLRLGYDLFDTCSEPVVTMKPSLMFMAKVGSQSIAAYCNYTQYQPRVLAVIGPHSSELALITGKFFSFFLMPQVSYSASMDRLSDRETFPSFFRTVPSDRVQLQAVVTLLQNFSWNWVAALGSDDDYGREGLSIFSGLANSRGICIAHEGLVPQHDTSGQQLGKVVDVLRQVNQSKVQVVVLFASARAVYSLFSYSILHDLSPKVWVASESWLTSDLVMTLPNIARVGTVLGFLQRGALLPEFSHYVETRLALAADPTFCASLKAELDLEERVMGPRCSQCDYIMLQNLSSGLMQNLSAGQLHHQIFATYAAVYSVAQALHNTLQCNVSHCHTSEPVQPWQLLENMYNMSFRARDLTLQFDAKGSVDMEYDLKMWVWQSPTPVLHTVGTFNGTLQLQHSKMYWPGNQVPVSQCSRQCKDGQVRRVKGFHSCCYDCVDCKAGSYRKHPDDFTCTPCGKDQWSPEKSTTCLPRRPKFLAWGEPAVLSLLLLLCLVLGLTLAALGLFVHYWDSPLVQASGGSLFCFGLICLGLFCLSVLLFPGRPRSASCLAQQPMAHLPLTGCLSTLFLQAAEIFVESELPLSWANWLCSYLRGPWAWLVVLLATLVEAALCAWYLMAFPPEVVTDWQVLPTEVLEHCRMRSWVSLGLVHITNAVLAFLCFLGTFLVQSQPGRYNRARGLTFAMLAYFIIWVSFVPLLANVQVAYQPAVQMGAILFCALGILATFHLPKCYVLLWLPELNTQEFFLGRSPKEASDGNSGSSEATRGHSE
Description: To this end, hTAS1R1/rTAS1R3 and the chimeric G protein Gα15i2 were transiently expressed in HEK293T cells. Cellular responses were assessed via calcium imaging using a fluorescent protein calcium biosensor (GCaMP6s) and compared with those of mock-transfected cells.

SMILES	EC50 (hTAS1R1; S807 alone, Fig. 5D) [µM]	EC50 (hTAS1R1/rTAS1R3; WT, S807 alone, Fig. 4E) [µM]	EC50 (hTAS1R1/rTAS1R3; agonist alone, Fig. 1, Fig. S2) [µM]	max ∆F/F0 (hTAS1R1/rTAS1R3; agonist alone, Fig. 1, Fig. S2)	effect of 10 mM GSH on the response to S807 (hTAS1R1)	response of transfected cells (hTAS1R1; GSH alone, Fig. 5A)	maximal response, fold lower than that elicited by L-Glu (hTAS1R1/rTAS1R3) [fold]	EC50 (hTAS1R1/rTAS1R3; GSH alone, Fig. 6C) [µM]	EC50 (hTAS1R1/rTAS1R3; GSH alone, Fig. 6D) [µM]	EC50 (hTAS1R1/rTAS1R3; GSH alone, Fig. 6E) [µM]	EC50 (hTAS1R1/rTAS1R3; WT, GSH) [µM]	Max ∆F/F0 (hTAS1R1/rTAS1R3; WT, GSH)	R1 = mutant EC50/WT EC50 (hTAS1R1/rTAS1R3; WT, GSH)	EC50 (hTAS1R1/rTAS1R3; WT, GSH alone, Fig. 4C) [µM]	effect on the dose-response curves to L-Glu (hTAS1R1/rTAS1R3; in the presence of 3 mM and 10 mM GSH, Fig. 6F)
CCCC(CCC)NC(=O)c1ccc2c(c1)OCO2 [S807, N-(heptan-4-yl)benzo[d][1,3]dioxole-5-carboxamide, reference compound]	0.89 ± 0.13	1.25 ± 0.12	1.02 ± 0.08	1.87 ± 0.03											
N[C@@H](CCC(=O)N[C@@H](CS)C(=O)NCC(=O)O)C(=O)O [GSH, γ-L-glutamyl-L-cysteinyl-glycine]			2150 ± 87	0.46 ± 0.01	not increased	did not respond	2.2	3430 ± 98	4360 ± 308	3210 ± 138	2520 ± 238	0.23 ± 0.01	1.0	4250 ± 500	a leftward shift and a decrease in the EC50 values
